PMC11281459 (Viruses, 2024)

Assays:
SARS-CoV-2 [1] = assay: microbe, parasite or virus in culture; type: cell-based; details: Severe acute respiratory syndrome coronavirus 2, VeroE6/TMPRSS2, 72 h, read-out: EC50 across SARS-CoV-2 Omicron subvariants (CPE by CellTiter-Glo)
SARS-CoV-2 [2] = assay: microbe, parasite or virus in culture; type: cell-based; details: Severe acute respiratory syndrome coronavirus 2, VeroE6/TMPRSS2, 48 h, read-out: IC50 values across different SARS-CoV-2 Omicron subvariants

Structure (SMILES): CNC(=O)C(=O)[C@H](CCC(C)(F)F)NC(=O)[C@@H]1[C@H]2CCC[C@H]2CN1C(=O)[C@@H](NC(=O)OC)C(C)(C)C [MK-7845]
- EC50 (SARS-CoV-2 [1]): 90 to 330 nM
- IC50 (SARS-CoV-2 [2]): 80 to 300 nM
